Measurements: EP3409671B1, “ISOTHIAZOLE DERIVATIVES AS GPR120 AGONISTS FOR THE TREATMENT OF TYPE II DIABETES” (Janssen Pharmaceutica NV, priority 2014, dated 2015)

Key:
[1] = molecular target: T1, short form of the GPR120 receptor (Homo sapiens, UniProt Q5NUL3); experiment: Human GPR120 DiscoveRx PathHunter Beta-Arrestin assay, Procedure β-arrestin B; assay type: cell-based; conditions: PathHunter CHO-K1 GPR120S β-Arrestin Cell Line, 5000 cells/well, read-out: hGPR120 β-arrestin B EC50
T1 construct: host or cells: PathHunter CHO-K1 GPR120S β-Arrestin Cell Line
T1 sequence (Q5NUL3 1-361): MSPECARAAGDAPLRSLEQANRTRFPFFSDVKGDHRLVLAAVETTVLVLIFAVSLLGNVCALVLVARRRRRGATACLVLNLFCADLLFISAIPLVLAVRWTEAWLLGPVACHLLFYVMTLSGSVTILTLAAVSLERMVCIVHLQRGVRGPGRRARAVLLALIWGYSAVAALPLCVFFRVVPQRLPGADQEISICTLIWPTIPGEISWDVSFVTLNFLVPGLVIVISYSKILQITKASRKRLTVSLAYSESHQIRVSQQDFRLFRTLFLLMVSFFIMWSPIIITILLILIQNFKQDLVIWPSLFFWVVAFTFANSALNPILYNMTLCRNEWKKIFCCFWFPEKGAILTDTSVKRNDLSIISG
Description: The binding of an agonist (medium/long chain fatty acids or small molecule agonists) to the G-protein-coupled receptor GPR120 activates phospholipase C, leading to release of intracellular Ca^+2 through the generation of inositol 1,4,5-trisphosphate (InsP3 or IP3). GPR120 activation can also trigger intracellular signaling via recruitment of Beta-Arrestin. In the present method, agonist-induced activation of the human GPR120 receptor is monitored through the use of PathHunter CHO-K1 GPR120 Beta-Arrestin Cell Line engineered by DiscoveRx, as detailed below. The cell lines are designed to co-express both the ProLink/Enzyme Donor (PK)-tagged GPCR and the Enzyme […] (EA)-tagged Beta-Arrestin fusion proteins. Upon GPR120 receptor stimulation / activation, the EA-tagged Beta-Arrestin portion is translocated to the tagged receptor, where the two enzyme fragments are brought within close proximity.
Under these conditions, these fragments can interact and form an active Beta-gal enzyme complex through Enzyme Fragment Complementation (EFC). This active Beta-gal complex can enzymatically hydrolyse the substrate to produce a detectable light signal; therefore, activation as a function of agonist concentration can be expressed as an EC50 value to determine relative compound activities. This in vitro assay therefore serves to assess compound agonist activity of the GPR120.
In Procedure β-arrestin B the cells used were PathHunter CHO-K1 GPR120S β-Arrestin Cell Line, expressing the short form of the GPR120 receptor (Accession #NM_181745), with 5000 cells/well. […]
The plates were read on an EnVision instrument, using Protocol name: Luminescence, Plate type: 384 Costar, Measurement height: 3 mm, Measurement time: 1s, Aperture: 384 Plate aperture. The %activity relative to the positive control was calculated using the following equation: %Activity = (Countcompound −Countvehicle)/(Countpostivite control −Countvehicle) × 100% [formula] […]

Human GPR120 short form = molecular target: T2, Human GPR120 short form (Homo sapiens, UniProt Q5NUL3); experiment: Human GPR120 Calcium Flux Assay, Procedure Calcium B; assay type: cell-based; conditions: HEK-293 cells expressing Human GPR120 short form, FLIPR, 4200 cells/well; read-out: GPR120 Ca^2+ Assay B EC50
T2 construct: expressed in transfected cells
T2 sequence (Q5NUL3 1-361): T1 sequence (Q5NUL3 1-361)
Description: This in vitro assay serves to assess test compound agonist activity against the short splice variant (SVS with Accession number NM_001195755.1 confirmed by sequencing data) of the GPR120 receptor. The Human Short splice variant #2 (NM_001195755.1) is missing an in-frame coding exon compared to variant 1 (the Human Long splice variant NM_181745.3), resulting in a shorter isoform (GPR120-S) lacking a 16 aa protein segment compared to isoform GPR120-L. The assay platform utilizes HEK-293 cells stably transfected to express the Human GPR120 short form. These cells are first loaded with the Ca^+2 sensitive dye, Fluo-4 NW. Upon stimulation, intracellular released Ca^+2 can bind to the dye and alter its fluorescence intensity. This increase in fluorescence signal, and thus the flux in intracellular [Ca^2+], is detected and quantitated by fluorescence imaging using a FLIPR reader. The effect of the agonist is measured as a function of concentration and used to calculate an EC50 based upon a response curve.
In this procedure 4200 cells/well were employed.
A Human GPR120 clone (Genbank accession number NM _001195755.1) was placed into the pcDNA3.1 mammalian expression vector carrying the neomycin resistance gene. A stable mammalian cell was generated by placing the above clone into a HEK293 background. Clonal cells responding to long chain fatty acids had expression levels of GPR120 confirmed by RT-qPCR. Human HEK-GPR120 cells were cultured in Dulbecco's Modified Eagle's Medium (DMEM)/F12 medium supplemented with 10% fetal bovine serum (FBS), 1% L-Glutamine and 1% penicillin/streptomycin and 0.5 mg/ml G-418. Cells were split 2 times a week to keep the cells in the log-phase growth.
In preparation for the assay, HEK cells stably transfected with Human GPR120 (2.5K cells per well in 25uL growth medium) were seeded into 384-well plates and then incubated overnight (37°C, 5% CO2). The next day, the media was changed to 20 µL assay buffer and the cell starved for 1h at 37°C. […]
The assay was performed on a FLIPR plate reader using the following parameters. Baseline was read for 10 seconds at 1 sec intervals. The program was set to transfer 10µL of ligand from compound plate to cell plate after baseline reading. […] After compound addition, each well was read for 300 sec, with measurements collected at 1 sec intervals.
The kinetic data from the FLIPR was based upon a 5 minute window for data collection. The fluorescence of each sample well was used for individual calculations of a normalized RFU value, which was defined as maximum response minus the minimum response. The normalized fluorescence reading (RFU) was calculated as follows: RFU = Fmax−Fmin [formula] […]

Row | EC50 [1] [nM] | EC50 (Human GPR120 short form) [nM] | SMILES
1 | 676 | 194 | Cc1c(CCC(=O)O)ccc(OCc2c(-c3ncc(Cl)s3)nsc2C(F)(F)F)c1C [Cpd 269, 3-(4-((3-(5-chlorothiazol-2-yl)-5-(trifluoromethyl)isothiazol-4-yl)methoxy)-2,3-dimethylphenyl)propanoic acid]
2 | 445 | 473 | COc1cnc(-c2nsc(C(F)(F)F)c2COc2ccc(CCC(=O)O)c(C)c2C)s1 [Cpd 268, 3-(4-((3-(5-methoxythiazol-2-yl)-5-(trifluoromethyl)isothiazol-4-yl)methoxy)-2,3-dimethylphenyl)propanoic acid]
3 | 526 | 274 | COc1cnc(-c2nsc(C(F)(F)F)c2COc2c(F)cc(CCC(=O)O)cc2F)s1 [Cpd 267, 3-(3,5-difluoro-4-((3-(5-methoxythiazol-2-yl)-5-(trifluoromethyl)isothiazol-4-yl)methoxy)phenyl)propanoic acid]
